Details of data set [1]: method as in earlier work. Particulars: ref IB; cited from earlier work.
On the set-up of data set [2]: method as in earlier work. The following applies: daily oral administration in SBE-CD for 1 month, rats; ref IB; cited from earlier work.
Details of data set [3]: method as in earlier work. The following applies: cynomolgus monkeys dosed for up to one month; ref IB; cited from earlier work.
The subject of data set [4] is tumor pERK. Details: method as in Study ARRY-0401. The following applies: 100 mg BD, Day 15 compared with pre-dose; 90% CI 50% to 93%; ref Study ARRY-0401; cited from earlier work.
Data set [5] relates to Ki67. Details: method as in Study ARRY-0401. Particulars: 100 mg BD; ref Study ARRY-0401; cited from earlier work.
The conditions of data set [6]: ref Study ARRY-0401, cited from earlier work.
Data set [7] concerns SW620 human colorectal cancer xenograft. Details: method as in earlier work. The following applies: AZD6244 25 mg/kg BD; irinotecan 25 mg/kg once weekly; docetaxel 15 mg/kg once weekly; ref IB; cited from earlier work.
Data set [8] has as its system HCT-116 human colorectal cancer xenograft. Details: method as in earlier work. Particulars: AZD6244 25 m/kg BD; docetaxel 15 mg/kg once weekly; ref IB; cited from earlier work.
On the set-up of data set [9]: method as in product label. The following applies: ref product label, cited from earlier work.
The nature of data set [10]: Pharmacokinetics alone and in combination, selumetinib + temsirolimus arm. It is filed as in vivo, human. Particulars: for AUC(0–8) / AUC(0–12) / Cmax: geometric mean (% CV); for tmax: median (range).
Protocol: (§1) PK parameters were derived using non-compartmental analysis. Cmax and tmax were determined by visual inspection of the plasma concentration-time profiles. AUC(0–12) was calculated by the linear trapezoidal rule. Where more than one maximum occurred, the reported value was assigned to the first occurrence.
Data set [11] has as its system ERK phosphorylation. Set-up: method as in earlier work. The following applies: cultured cells; more active than parent; ref IB; cited from earlier work.
Data set [12] has as its system cell viability. Set-up: method as in earlier work. The following applies: more active than parent; ref IB; cited from earlier work.
Data set [13] has as its system CYP1A2. Details: method as in earlier work. Particulars: weak inhibition; ref IB; cited from earlier work.
Data set [14] in a line: Pharmacokinetics alone and in combination, selumetinib + erlotinib arm. Particulars: for tmax: median (range).
Protocol: as §1
The conditions of data set [15]: ref product label, cited from earlier work.
Setting [16] is: dosed alone, selumetinib 50 mg cohort (N = 25), temsirolimus 25 mg IV.
Where [17] appears, read: dosed alone, selumetinib 75 mg cohort (N = 6), temsirolimus 25 mg IV.
[18] abbreviates: dosed in combination, selumetinib 50 mg BID (N = 22) + temsirolimus 25 mg IV.
The mark [19] stands for this setting: dosed in combination, selumetinib 75 mg BID (N = 5) + temsirolimus 25 mg IV.
The mark [20] stands for this setting: geometric mean (% CV), dosed alone, selumetinib 50 mg cohort (N = 14), erlotinib 100 mg QD.
The mark [21] stands for this setting: geometric mean (% CV), dosed alone, selumetinib 75 mg cohort (N = 6), erlotinib 100 mg QD.
Setting [22] is: geometric mean (% CV), dosed in combination, selumetinib 50 mg BID (N = 12) + erlotinib 100 mg QD.
[23] abbreviates: geometric mean (% CV), dosed in combination, selumetinib 75 mg BID (N = 6) + erlotinib 100 mg QD.
Where [24] appears, read: geometric mean, QD cohorts, dosed alone, selumetinib 50 mg cohort (N = 7), erlotinib 100 mg QD.
Setting [25] is: geometric mean, QD cohorts, dosed alone, selumetinib 100 mg cohort (N = 6), erlotinib 100 mg QD.
Setting [26] is: geometric mean, QD cohorts, dosed alone, selumetinib 150 mg cohort (N = 13), erlotinib 100 mg QD.
The mark [27] stands for this setting: geometric mean, QD cohorts, in combination, selumetinib 50 mg (N = 6) + erlotinib 100 mg QD.
Setting [28] is: geometric mean, QD cohorts, in combination, selumetinib 100 mg (N = 6) + erlotinib 100 mg QD.
Setting [29] is: geometric mean, QD cohorts, in combination, selumetinib 150 mg (N = 12) + erlotinib 100 mg QD.

Turning to `Cn1cnc2c(F)c(Nc3ccc(Br)cc3Cl)c(C(=O)NOCCO)cc21` [AZD6244 free-base], the solubility entry in [1] is listed as “limited solubility”. Further, in [2], the tolerability result is “well tolerated”; the toxicity findings entry is “soft stools and gastrointestinal mucosal mineralization”. For the same compound, in data set [3], the tissue mineralization entry was “not apparent”. In addition, the “inhibition of tumor pERK, geometric mean” value in data set [4] is 81%. In addition, in data set [5], the “patients with reduction in Ki67” value was 9/20 and the “patients with reduction in Ki67 ≥50% of pre-dose” value is recorded as 5 patients. The “patients with SD” value in data set [6] (RECIST, as of 30 September 2006) was 17 patients. Further, in data set [6] (RECIST), the best overall response result is “stable disease (SD)” and the “patients with long term (≥5 months) SD” value was 9 patients. For the same compound, the MTD in data set [6] (free-base mix and drink formulation) is listed as 100 mg BD.

Regarding `CC(=O)O[C@@]12CO[C@@H]1C[C@H](O)[C@@]1(C)C(=O)[C@H](O)C3=C(C)[C@@H](OC(=O)[C@H](O)[C@@H](NC(=O)OC(C)(C)C)c4ccccc4)C[C@@](O)([C@@H](OC(=O)c4ccccc4)[C@H]21)C3(C)C` [Docetaxel], the “Tumor growth inhibition as a % of control” value is recorded as 12 % of control in [7] and 93.4 % of control in data set [8]. In data set [9] (53/965 metastatic breast cancer patients), the “severe neurosensory symptoms (paresthesia, dysesthesia, pain)” value is reported as 5.5%. For the same compound, the “treatment discontinuation due to severe neurosensory symptoms” value in data set [9] (metastatic breast cancer patients) is listed as 6.1%.

Take `O=C(NOCCO)c1cc2nc[nH]c2c(F)c1Nc1ccc(Br)cc1Cl` [N-desmethyl selumetinib]: the “AUC(0–8)” value in [10] (setting [16]) is 124.3 (80.50) ng•h/mL; in data set [10] (setting [17]), 231.1 (68.07) ng•h/mL; in [10] (setting [18]), 129.4 (59.96) ng•h/mL; in data set [10] (setting [19]), 167.8 (51.40) ng•h/mL; in data set [14] (setting [20]), 141.3 (41.79) [13] ng•h/mL; in data set [14] (setting [21]), 195.9 (36.04) ng•h/mL. Besides, the “AUC(0–8)” value in [14] (setting [22]) is 130.4 (39.09) ng•h/mL; in data set [14] (setting [23]) it was 227.5 (57.77) ng•h/mL; in [14] (setting [24]) it was 156 ng·h/mL; in data set [14] (setting [25]) it was 347 ng·h/mL; in data set [14] (setting [26]), 279 ng·h/mL; in data set [14] (setting [27]), 149 ng·h/mL. Also, the “AUC(0–8)” value in data set [14] (setting [28]) was determined as 404 ng·h/mL; in [14] (setting [29]), 286 ng·h/mL. For the same compound, the “AUC(0–12)” value in data set [10] (setting [16]) is 168.2 (54.21) [23] ng•h/mL; in data set [10] (setting [17]), 269.4 (62.60) ng•h/mL; in data set [10] (setting [18]), 168.2 (57.86) [14] ng•h/mL; in [10] (setting [19]), 190.5 (55.06) [4] ng•h/mL; in data set [14] (setting [20]), 173.4 (39.75) [12] ng•h/mL; in [14] (setting [21]), 223.9 (34.90) ng•h/mL. Also, the “AUC(0–12)” value in [14] (setting [22]) is 153.3 (39.37) ng•h/mL; in [14] (setting [23]), 262.7 (53.29) ng•h/mL; in [14] (setting [24]) it was 181 ng·h/mL; in data set [14] (setting [25]), 401 ng·h/mL; in data set [14] (setting [26]) it was 331 ng·h/mL; in [14] (setting [27]), 181 ng·h/mL. Further, the “AUC(0–12)” value in data set [14] (setting [28]) was 454 ng·h/mL; in data set [14] (setting [29]) it was 344 ng·h/mL. The Cmax is listed as 35.28 (109.00) ng/mL in [10] (setting [16]); 75.34 (88.64) ng/mL in data set [10] (setting [17]); 38.51 (81.60) ng/mL in [10] (setting [18]); 48.36 (65.63) ng/mL in data set [10] (setting [19]); 41.69 (60.64) ng/mL in [14] (setting [20]); 66.80 (75.74) ng/mL in [14] (setting [21]). The Cmax in data set [14] (setting [22]) was 43.37 (47.62) ng/mL; in [14] (setting [23]) it was 72.94 (91.01) ng/mL; in data set [14] (setting [24]) it was 45.6 ng/mL; in [14] (setting [25]), 109 ng/mL; in data set [14] (setting [26]), 79.6 ng/mL; in data set [14] (setting [27]), 44.5 ng/mL. For the same compound, the results for the Cmax in data set [14] (setting [28]) and in data set [14] (setting [29]) were 129 ng/mL and 68.3 ng/mL, respectively. Moreover, the tmax was 1.5 (1.0–8.0) h in data set [10] (setting [16]); 1.5 (1.0–4.0) h in [10] (setting [17]); 2.0 (1.0–2.0) h in [10] (setting [18]); 2.0 (1.0–2.0) h in [10] (setting [19]); 1.50 (1.00–4.00) h in data set [14] (QD cohorts, dosed alone, selumetinib 50 mg cohort (N = 7), erlotinib 100 mg QD); 1.50 (1.50–4.00) h in [14] (QD cohorts, dosed alone, selumetinib 100 mg cohort (N = 6), erlotinib 100 mg QD). Also, the tmax in data set [14] (QD cohorts, dosed alone, selumetinib 150 mg cohort (N = 13), erlotinib 100 mg QD) is given as 1.50 (1.00–8.00) h; in data set [14] (QD cohorts, in combination, selumetinib 50 mg (N = 6) + erlotinib 100 mg QD), 1.50 (1.50–8.00) h; in data set [14] (QD cohorts, in combination, selumetinib 100 mg (N = 6) + erlotinib 100 mg QD), 1.50 (1.00–2.00) h; in [14] (QD cohorts, in combination, selumetinib 150 mg (N = 12) + erlotinib 100 mg QD), 2.00 (1.00–4.00) h; in [14] (dosed alone, selumetinib 50 mg cohort (N = 14), erlotinib 100 mg QD) it was 1.5 (1.0–12.0) h; in data set [14] (dosed alone, selumetinib 75 mg cohort (N = 6), erlotinib 100 mg QD), 1.45 (1.0–2.0) h. The tmax in data set [14] (dosed in combination, selumetinib 50 mg BID (N = 12) + erlotinib 100 mg QD) is on record as 1.25 (1.0–4.0) h; in data set [14] (dosed in combination, selumetinib 75 mg BID (N = 6) + erlotinib 100 mg QD), 1.5 (1.0–2.0) h. Also, the “PK parameters when administered alone and in combination” value in data set [10] (selumetinib + temsirolimus arm) and in [14] (selumetinib + erlotinib arm) was “similar” in each case. Further, the “activity relative to AZD6244 parent compound, inhibition of ERK phosphorylation” value in data set [11] is “approximately 3 fold”. Besides, in data set [12], the “activity relative to AZD6244 parent compound, inhibition of cell viability” value was “approximately 5 fold”. Also, the IC50 in data set [13] is 18.9 µM. For the same compound, the “plasma concentrations/exposure as % of AZD6244 concentrations/exposure” value in data set [6] (Part B of the study) is not above 10%.

As to `CN(C)/N=N/c1[nH]cnc1C(N)=O` [dacarbazine], in [15] (patients treated), the “incidence of hepatic toxicity with hepatic vein thrombosis and hepatocellular necrosis resulting in death” value was “approximately 0.01%”. Further, in [15] (with the initial few doses), the “patients affected by anorexia, nausea, and vomiting” value is “Over 90%”.

What is called IC50 is the concentration that inhibits the measured activity by half.

Source of the values: publication PMC5613062 (Investigational New Drugs, 2017).
